From PMC2151634 (The Journal of General Physiology, 2007)

Biological target: T1, P2X2 receptor (Rattus norvegicus, UniProt P49653)
T1 sequence (P49653 1-472): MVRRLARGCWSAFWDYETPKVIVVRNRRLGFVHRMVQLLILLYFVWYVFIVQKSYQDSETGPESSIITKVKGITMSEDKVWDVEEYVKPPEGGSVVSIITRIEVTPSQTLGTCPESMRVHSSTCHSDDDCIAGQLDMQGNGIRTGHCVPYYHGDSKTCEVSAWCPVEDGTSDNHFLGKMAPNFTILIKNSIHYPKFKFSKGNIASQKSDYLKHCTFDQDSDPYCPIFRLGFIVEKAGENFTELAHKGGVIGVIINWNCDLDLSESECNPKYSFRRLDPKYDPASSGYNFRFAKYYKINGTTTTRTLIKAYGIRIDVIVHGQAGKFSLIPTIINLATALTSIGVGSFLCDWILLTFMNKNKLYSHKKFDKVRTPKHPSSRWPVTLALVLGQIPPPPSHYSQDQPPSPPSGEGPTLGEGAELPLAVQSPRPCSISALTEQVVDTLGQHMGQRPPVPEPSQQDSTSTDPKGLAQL
Assay: outside-out patch clamp, peak current, 2-s ATP pulses
Assay type: cell-based

`Nc1ncnc2c1ncn2[C@@H]1O[C@H](COP(=O)(O)OP(=O)(O)OP(=O)(O)O)[C@@H](O)[C@H]1O` [ATP] gave an EC50 of 9.8 µM.
